Tests used:
[1] = “swing” test (changing temperature test, 5° C./43° C.), microscopical examination; type: physicochemical; settings: O/W emulsions with genistein of example 7 after dry grinding in a Jet mill only (FIG. 7), 0.3%, 0.5% and 0.1% (1.0% elsewhere in the source); ten sequences 5° C./43° C., 24 hours each
Experimental: To further illustrate the benefits obtained with nanoparticles of genistein versus conventional crystalline genistein, the cosmetic formulations described above (#3 and #4) were submitted to a very challenging stability test: The formulations were stored at a temperature varying from 5° C. to 43° C. every 24 hours during 3 weeks. […] (cycles of 24 hours at each temperature).
To force the crystallization in a disperse system, a test was used in which the temperature is changed over a self-defined timeframe and in self-defined sequences. The test is called “swing” test (changing temperature test). The purpose of this test is to dissolve small particles at the higher temperature and to force re-crystallization at lower temperature. […] The following formulations were used for the “swing” test: […]
To force this crystallization the “swing” test was used and as minimum and maximum temperatures 5° C. and 43° C. were chosen. Each temperature was held over a period of 24 hours. The duration of this test was at first set to 20 days, which means that the samples run through a cooling/heating sequence (=1 sequence) 10 times.
FIGS. 5 to 7 show the results of the “swing” test. […] The following genistein samples and concentrations were employed and the emulsions were measured immediately after preparation and after subjecting the samples to ten sequences of the “swing” test: […]

[2] = Genistein particle size by laser diffraction technique (Mastersizer 2000); type: physicochemical
[3] = Example 1, after homogenization (42 passes) and spray-drying, re-dispersed in water
[4] = Example 1, after homogenization (42 passes, 1500 bar) with starch sodium octenyl succinate, aqueous suspension
[5] = Example 1, genistein powder before homogenization
[6] = Example 2, after homogenization (40 passes, 1500 bar) in water, no carrier
[7] = Example 2, after homogenization (42 passes) and spray-drying, re-dispersed in water
[8] = Example 2, after homogenization (42 passes), starch sodium octenyl succinate added after 40th pass
[9] = Example 2, genistein powder before homogenization
[10] = Example 3, after homogenization (40 passes, 1500 bar) in water, no carrier
[11] = Example 3, after homogenization (42 passes) and spray-drying, re-dispersed in water
[12] = Example 3, after homogenization (42 passes), starch sodium octenyl succinate added after 40th pass
[13] = Example 3, genistein powder before homogenization
[14] = Example 4, after homogenization (20 passes, 700 bar) in water, no carrier
[15] = Example 4, genistein powder before homogenization
[16] = Example 5, Table XI, headed after homogenization (42 passes) and spray-drying, maltodextrin added after 40th pass, suspension before drying
[17] = Example 5, Table XII, after homogenization (42 passes) and spray-drying, maltodextrin carrier, re-dispersed in water
[18] = Example 5, after homogenization (20 passes) as headed, text: 40 times, 1500 bar, in water, no carrier
[19] = Example 5, genistein powder before homogenization
[20] = Example 6, after homogenization (11 passages) in agitated bead mill with starch sodium octenyl succinate
[21] = Example 6, genistein powder before homogenization
[22] = Example 7, Table XIV, before milling and homogenization
[23] = Example 7, Table XV, before milling and homogenization
[24] = Example 7, after milling (Jet mill) and homogenization (12 times, 700 bar) with starch sodium octenyl succinate
[25] = Example 7, after milling, homogenization and spray drying

Change of particle size during the “swing” test [1]: significantly changed | Average particle size D[3, 2] [2, 3]: 0.14 microns | Average particle size D[4, 3] [2, 3]: 0.83 microns | D (v, 0.1) [2, 3]: 0.07 microns | D (v, 0.5) [2, 3]: 0.16 microns | D (v, 0.9) [2, 3]: 2.86 microns | Average particle size D[3, 2] [2, 4]: 0.15 microns | Average particle size D[4, 3] [2, 4]: 0.97 microns | D (v, 0.1) [2, 4]: 0.07 microns | D (v, 0.5) [2, 4]: 0.17 microns | D (v, 0.9) [2, 4]: 3.65 microns | Average particle size D[3, 2] [2, 5]: 23.1 microns | Average particle size D[4, 3] [2, 5]: 48.5 microns | D (v, 0.1) [2, 5]: 17.1 microns | D (v, 0.5) [2, 5]: 41.9 microns | D (v, 0.9) [2, 5]: 91.0 microns | Average particle size D[3, 2] [2, 6]: 0.14 microns | Average particle size D[4, 3] [2, 6]: 0.76 microns | D (v, 0.1) [2, 6]: 0.07 microns | D (v, 0.5) [2, 6]: 0.16 microns | D (v, 0.9) [2, 6]: 2.42 microns | Average particle size D[3, 2] [2, 7]: 0.14 microns | Average particle size D[4, 3] [2, 7]: 0.55 microns | D (v, 0.1) [2, 7]: 0.07 microns | D (v, 0.5) [2, 7]: 0.15 microns | D (v, 0.9) [2, 7]: 1.14 microns | Average particle size D[3, 2] [2, 8]: 0.14 microns | Average particle size D[4, 3] [2, 8]: 0.41 microns | D (v, 0.1) [2, 8]: 0.07 microns | D (v, 0.5) [2, 8]: 0.16 microns | D (v, 0.9) [2, 8]: 0.93 microns | Average particle size D[3, 2] [2, 9]: 23.1 microns | Average particle size D[4, 3] [2, 9]: 48.5 microns | D (v, 0.1) [2, 9]: 17.1 microns | D (v, 0.5) [2, 9]: 41.9 microns | D (v, 0.9) [2, 9]: 91.0 microns | Average particle size D[3, 2] [2, 10]: 0.14 microns | Average particle size D[4, 3] [2, 10]: 0.76 microns | D (v, 0.1) [2, 10]: 0.07 microns | D (v, 0.5) [2, 10]: 0.16 microns | D (v, 0.9) [2, 10]: 2.00 microns | Average particle size D[4, 3] [2, 11]: 0.43 microns | D (v, 0.1) [2, 11]: 0.07 microns | D (v, 0.5) [2, 11]: 0.16 microns | D (v, 0.9) [2, 11]: 0.97 microns | Average particle size D[3, 2] [2, 12]: 0.14 microns | Average particle size D[4, 3] [2, 12]: 0.40 microns | D (v, 0.1) [2, 12]: 0.07 microns | D (v, 0.5) [2, 12]: 0.16 microns | D (v, 0.9) [2, 12]: 0.91 microns | Average particle size D[3, 2] [2, 13]: 23.1 microns | Average particle size D[4, 3] [2, 13]: 48.5 microns | D (v, 0.1) [2, 13]: 17.1 microns | D (v, 0.5) [2, 13]: 41.9 microns | D (v, 0.9) [2, 13]: 91.0 microns | Average particle size D[3, 2] [2, 14]: 0.13 microns | Average particle size D[4, 3] [2, 14]: 0.83 microns | D (v, 0.1) [2, 14]: 0.07 microns | D (v, 0.5) [2, 14]: 0.15 microns | D (v, 0.9) [2, 14]: 2.62 microns | Average particle size D[3, 2] [2, 15]: 23.1 microns | Average particle size D[4, 3] [2, 15]: 48.5 microns | D (v, 0.1) [2, 15]: 17.1 microns | D (v, 0.5) [2, 15]: 41.9 microns | D (v, 0.9) [2, 15]: 91.0 microns | Average particle size D[3, 2] [2, 16]: 0.14 microns | Average particle size D[4, 3] [2, 16]: 0.41 microns | D (v, 0.1) [2, 16]: 0.07 microns | D (v, 0.5) [2, 16]: 0.16 microns | D (v, 0.9) [2, 16]: 0.93 microns | Average particle size D[3, 2] [2, 17]: 0.13 microns | Average particle size D[4, 3] [2, 17]: 0.41 microns | D (v, 0.1) [2, 17]: 0.07 microns | D (v, 0.5) [2, 17]: 0.15 microns | D (v, 0.9) [2, 17]: 0.93 microns | Average particle size D[2, 3] [2, 18]: 0.14 microns | Average particle size D[4, 3] [2, 18]: 0.42 microns | D (v, 0.1) [2, 18]: 0.07 microns | D (v, 0.5) [2, 18]: 0.16 microns | D (v, 0.9) [2, 18]: 0.92 microns | Average particle size D[2, 3] [2, 19]: 23.1 microns | Average particle size D[4, 3] [2, 19]: 48.5 microns | D (v, 0.1) [2, 19]: 17.8 microns | D (v, 0.5) [2, 19]: 41.4 microns | D (v, 0.9) [2, 19]: 90.2 microns | Average particle size D[4, 3] [2, 20]: 0.23 microns | D (v, 0.1) [2, 20]: 0.07 microns | D (v, 0.5) [2, 20]: 0.16 microns | D (v, 0.9) [2, 20]: 0.45 microns | Average particle size D[4, 3] [2, 21]: 48.5 microns | D (v, 0.1) [2, 21]: 17.8 microns | D (v, 0.5) [2, 21]: 41.4 microns | D (v, 0.9) [2, 21]: 90.2 microns | Average particle size D[4, 3] [2, 22]: 48.5 microns | D (v, 0.1) [2, 22]: 17.8 microns | D (v, 0.5) [2, 22]: 41.4 microns | D (v, 0.9) [2, 22]: 90.2 microns | Average particle size D[4, 3] [2, 23]: 48.5 microns | D (v, 0.1) [2, 23]: 17.8 microns | D (v, 0.5) [2, 23]: 41.4 microns | D (v, 0.9) [2, 23]: 90.2 microns | Average particle size D[4, 3] [2, 24]: 0.53 microns | D (v, 0.1) [2, 24]: 0.07 microns | D (v, 0.5) [2, 24]: 0.18 microns | D (v, 0.9) [2, 24]: 1.38 microns | Average particle size D[4, 3] [2, 25]: 0.65 microns | D (v, 0.1) [2, 25]: 0.08 microns | D (v, 0.5) [2, 25]: 0.19 microns | D (v, 0.9) [2, 25]: 1.84 microns | Average particle size D[2, 3] ([2]; after homogenization (42 passes) and spray-drying, re-dispersed in water): 0.14 microns
SMILES: O=c1c(-c2ccc(O)cc2)coc2cc(O)cc(O)c12 [Genistein, 4′,5,7-trihydroxyisoflavone]
